Assays:
[1] = Volatilization Using Stainless Steel Foil; HPLC analysis of the condensation aerosol; assay type: physicochemical; conditions: for Purity of each drug in the aerosol from a mixture of albuterol and flunisolide: about 0.20 mg flunisolide and about 0.16 mg albuterol co-coated on stainless steel foil (5 cm^2), film about 0.64 μm, capacitor 15.5 V; for Purity of the aerosol (purity analysis): single drug on stainless steel foil substrate (5 cm^2), film thickness about 0.4-1.2 μm, capacitor charged to 15 V
From the text: Strips of clean 304 stainless steel foil (0.0125 cm thick, Thin Metal Sales) having dimensions 1.3 cm by 7.0 cm were dip-coated approximately 4.5 to 5 cm on the strip with an asthma drug solution prepared as described above. The foil was then partially dipped three times into solvent to rinse drug off of the last 2-3 cm of the dipped end of the foil. Alternatively, the drug-coating from this bottom 2-3 cm area was carefully taken off with a razor blade. The final coated area was between 2.0-2.5 cm by 1.3 cm on both sides of the foil, for a total area of between 5.2-6.5 cm^2. Foils were prepared as stated above and then some were extracted with methanol or acetonitrile as standards. The amount of drug was determined from quantitative HPLC analysis. Using the known drug-coated surface area, the thickness was then calculated.
After drying, the drug-coated foil was placed into a volatilization chamber constructed of a Delrin block (the airway) and brass bars, which served as electrodes. The dimensions of the airway were 1.3 cm high by 2.6 cm wide by 8.9 cm long. The drug-coated foil was placed into the volatilization chamber such that the drug-coated section was between the two sets of electrodes. After securing the top of the volatilization chamber, the electrodes were connected to a 1 Farad capacitor (Phoenix Gold). The back of the volatilization chamber was connected to a two micron Teflon® filter (Savillex) and filter housing, which were in turn connected to the house vacuum. Sufficient airflow was initiated (typically 30 L/min=1.5 m/sec), at which point the capacitor was charged with a power supply, typically to between 14-17 Volts.
The circuit was closed with a switch, causing the drug-coated foil to resistively heat to temperatures of about 280-430° C. (as measured with an infrared camera (FLIR Thermacam SC3000)), in about 200 milliseconds. After the drug had vaporized, airflow was stopped and the Teflon® filter was extracted with acetonitrile. Drug extracted from the filter was analyzed generally by HPLC UV absorbance generally at 225 nm using a gradient method aimed at detection of impurities to determine percent purity. Also, the extracted drug was quantified to determine a percent yield, based on the mass of drug initially coated onto the substrate. A percent recovery was determined by quantifying any drug remaining on the substrate and chamber walls, adding this to the quantity of drug recovered in the filter and comparing it to the mass of drug initially coated onto the substrate.

[2] = Volatilization from stainless steel cylinder (flashbar); HPLC analysis of the condensation aerosol; assay type: physicochemical; conditions: drug dip coated on stainless steel flashbar, capacitors 20.5 volts, heated to about 400° C. within about 200 milliseconds, 15 L/min room air
From the text: A hollow stainless steel cylinder with thin walls, typically 0.12 mm wall thickness, a diameter of 13 mm, and a length of 34 mm was cleaned in dichloromethane, methanol, and acetone, then dried, and fired at least once to remove any residual volatile material and to thermally passivate the stainless steel surface. The substrate was then dip-coated with a drug coating solution (prepared as described above). The dip-coating was done using a computerized dipcoating machine to produce a thin layer of drug on the outside of the substrate surface. The substrate was lowered into the drug solution and then removed from the solvent at a rate of typically 5-25 cm/sec. (To coat larger amounts of material on the substrate, the substrate was removed more rapidly from the solvent or the solution used was more concentrated.) The substrate was then allowed to dry for 30 minutes inside a fume hood. If either dimethylformamide (DMF) or a water mixture was used as a dip-coating solvent, the substrate was vacuum dried inside a desiccator for a minimum of one hour. The drug-coated portion of the cylinder generally has a surface area of 8 cm^2. By assuming a unit density for the drug, the initial drug coating thickness was calculated. The amount of drug coated onto the substrates was determined in the same manner as that described above: the substrates were coated, then extracted with methanol or acetonitrile and analyzed with quantitative HPLC methods, to determine the mass of drug coated onto the substrate.
The drug-coated substrate was placed in a surrounding glass tube connected at the exit end via Tygon® tubing to a filter holder fitted with a Teflon® filter (Savillex). The junction of the tubing and the filter was sealed with paraffin film. The substrate was placed in a fitting for connection to two 1 Farad capacitors wired in parallel and controlled by a high current relay. The capacitors were charged by a separate power source to about 18-22 Volts and most of the power was channeled to the substrate by closing a switch and allowing the capacitors to discharge into the substrate. The substrate was heated to a temperature of between about 300-500° C. in about 100 milliseconds. The heating process was done under an airflow of 15 L/min, which swept the vaporized drug aerosol into a 2 micron Teflon® filter.
After volatilization, the aerosol captured on the filter was recovered for quantification and analysis. The quantity of material recovered in the filter was used to determine a percent yield, based on the mass of drug coated onto the substrate. The material recovered in the filter was also analyzed generally by HPLC UV absorbance at typically 225 nm using a gradient method aimed at detection of impurities, to determine purity of the thermal vapor. Any material deposited on the glass sleeve or remaining on the substrate was also recovered and quantified to determine a percent total recovery ((mass of drug in filter+mass of drug remaining on substrate and glass sleeve)/mass of drug coated onto substrate). For compounds without UV absorption GCMS or LC/MS was used to determine purity and to quantify the recovery. Some samples were further analyzed by LC/MS to confirm the molecular weight of the drug and any degradants.
About 1.2 mg of albuterol was dip coated onto the stainless steel surface of a flashbar apparatus. (The flashbar is a cylinder 3.5 cm long and 1.3 cm in diameter consisting of a hollow tube of 0.005″ thick stainless steel). Brass electrodes were connected to either end of the steel cylinder. The coated flashbar was secured in an electrical mount, which connected to two 1.0 Farad capacitors in parallel. An airway was provided by a 2 cm diameter glass sleeve placed around the flashbar. 15 L/min of room air were pulled by a house vacuum through the vaporization chamber and a filter housing, which contained a two-micron Teflon filter. […]

Compound	Purity of each drug in the aerosol from a mixture of albuterol and flunisolide [1] [%]	Purity of the aerosol (purity analysis by HPLC) [2]	Purity of the aerosol (purity analysis) [1] [%]
CC(C)(C)NCC(O)c1ccc(O)c(CO)c1 (centres unmarked) [albuterol]	97.2	94.4%	
CC(C)C(=O)OCC(=O)[C@@]12O[C@H](C3CCCCC3)O[C@@H]1C[C@H]1[C@@H]3CCC4=CC(=O)C=C[C@]4(C)[C@H]3[C@@H](O)C[C@@]12C [ciclesonide]			99.03
CC(C)NCC(O)c1cc(O)cc(O)c1 (centres unmarked) [metaproterenol]		99.1%	
CC(C)(C)NCC(O)c1cc(O)cc(O)c1 (centres unmarked) [terbutaline]		99.3%	
CC1(C)O[C@@H]2C[C@H]3[C@@H]4CCC5=CC(=O)C=C[C@]5(C)[C@@]4(F)[C@@H](O)C[C@]3(C)[C@]2(C(=O)CO)O1 [triamcinolone acetonide]		about 92.0%	
CCCC1O[C@@H]2C[C@H]3[C@@H]4CCC5=CC(=O)C=C[C@]5(C)[C@H]4[C@@H](O)C[C@]3(C)[C@]2(C(=O)CO)O1 (some centres unmarked) [budesonide]		70.5%	
CCCn1c(=O)c2[nH]c(C3CCCC3)nc2n(CCC)c1=O [CPX]			99.8
Cn1c(=O)c2[nH]cnc2n(C)c1=O [theophylline]		about 99.5%	
flunisolide	94.5	97.6%	94.9
CCC(=O)O[C@]1(C(=O)SCF)[C@H](C)C[C@H]2[C@@H]3C[C@H](F)C4=CC(=O)C=C[C@]4(C)[C@@]3(F)[C@@H](O)C[C@@]21C [fluticasone propionate]			91.6
CC(C)Cn1c(=O)n(C)c(=O)c2[nH]cnc21 [IBMX]			99.9
